In experiment [1] the test system is 78 Psy crcB motif RNA (fluoride riboswitch aptamer). The experiment is classed as binding, Pseudomonas syringae.
The subject of experiment [2] is WT E. coli cells.
Procedure: For each bacterial strain, an overnight culture was set up of the desired bacteria the previous day. The majority of the growth curves were conducted in 350 μL LB medium that initially was not supplemented with salt. […] The desired concentration of NaF or NaCl was subsequently added as designated for each culture after a 1:100 dilution of an overnight culture. Wells with NaF concentrations below 1 mM were supplemented with 1 mM NaCl. Each condition was set up in duplicate or triplicate. Every fifteen minutes the 100-well plate was shaken at medium intensity for 10 seconds and the OD600 was automatically measured for a period of 16 hours. The data was analyzed using Microsoft Excel.
In experiment [3] the target is crcB motif RNA. To be noted: read-out: KD for fluoride binding; in-line probing. The procedure: (§1) Briefly, in vitro transcribed RNA were 5′ ^32P-radiolabeled and trace amounts (˜1 nM) were incubated at room temperature for 48 hours (unless otherwise indicated) in the presence of 100 mM KCl, 50 mM Tris-HCl (pH 8.3 at 23° C.), and 20 mM MgCl2. Cleavage products were separated by using denaturing 10% PAGE and imaged with a PhosphorImager (Molecular Dynamics). ImageQuant 5.1 was used to establish band intensities. Exceptions to the typical in-line probing methods are detailed in the following sections.

Experiment [4] concerns crcB KO strain of E. coli. The experiment in a line: microbe, parasite or virus in culture. As for the experimental part: (§2) Cell growth of WT and crcB KO E. coli strains were measured overnight using a Bioscreen C instrument (Oy Growth Curves Ab Ltd, Finland). The amount of fluoride added to the media was varied to measure the effect on growth at several pH values. Reporter constructs with B. cereus or P. syringae riboswitch sequences fused to the lacZ gene were cloned into the vectors pDG1661 or pRS414, respectively. The two vectors were transformed into B. subtilis or E. coli, and gene expression was examined by addition of X-gal into grown cultures or quantified with Miller assays.
(§3) Growth curves to compare pH conditions used 350 μL of LB (neutral pH) or LBK medium (pH 5.5), 3.5 μL of an overnight culture, and 3.5 μL, of a 10× sodium fluoride or sodium chloride solution. Growth curves with empty or eriC^F-containing plasmid included 100 μg mL^−1 carbenicillin added to the growth medium (2XLB), which was subsequently diluted two-fold to a final concentration of 50 μg mL^−1.
(§4) E. coli strains BW25113 and its crcB KO derivative strain harboring the eriC^F riboswitch reporter construct were streaked on modified LB plates with carbenicillin (100 μg mL^−1) and X-gal (800 μg ml^−1). Plates included 0, 0.2 or 50 mM NaF.

In experiment [5] the test system is eriC^F-rescued E. coli crcB KO cells. The procedure: The eriC^F gene from P. syringae DC3000 was amplified from genomic DNA by PCR and cloned into the pCR2.1 TA vector (Invitrogen). The cloned fragment contained the full length eriC^F ORF, the 5′ UTR features described above, and the native promoter to drive expression.
as §3

Experiment [6] has as its target crcB motif RNA. As to conditions: read-out: KD for fluoride binding; in-line probing. The procedure:
as §1
This is another data set of the same source.

Experiment [7] relates to fluoride riboswitch from the P. syringae eriC gene fused to lacZ. The procedure:
as §2
The 5′ UTR of COG0038 (eriC^F homolog) was amplified from P. syringae DC3000 genomic DNA as an EcoRI-BamHI fragment and cloned into the translational reporter vector pRS414. […] Specifically, the region encompassing nucleotides −248 to +24 with respect to the beginning of the eriC^F ORF was cloned as a translational fusion in pRS414, wherein the 8th codon of the ORF was fused in frame to the 9th codon of lacZ reporter gene. Mutations in the regulatory region were generated by a three-step PCR approach using methods described previously (A. Nahvi, et al., Chem. Biol. 9, 1043 (2002)).
as §4

For experiment [8], the system named is riboswitch associated with B. cereus crcB fused to lacZ. As to conditions: increasing amounts of fluoride, X-gal and Miller assays with ONPG. The procedure: as §2
Experiment [9] deals with E. coli cells lacking the gene to express the fluoride transporter protein CrcB. The experiment in a line: Fluoride riboswitch beta-galactosidase reporter (4-MUG) in E. coli lacking CrcB with imipramine. The experiment is classed as cell-based. As to conditions: same construct in cells lacking CrcB, compared with cells having CrcB. An excerpt: (§5) A fluoride riboswitch fused to a beta-galactosidase reporter gene is present in E. coli cells and cells are exposed to concentrations of sodium fluoride and imipramine (x-axis) as noted. The structure of imipramine is shown below.

Experiment [10] concerns the target T1, fluoride transporter protein CrcB (Escherichia coli, UniProt P37002).
T1 construct: this bacterial species does code for a CrcB protein; endogenous in cells; host or cells: E. coli
The experiment in a line: Fluoride riboswitch beta-galactosidase reporter (4-MUG) in E. coli with imipramine. The experiment is classed as cell-based.
Text: as §5

Where [11] appears, read: ligands at 10 mM or as in footnotes of Tables 1 and 2 (CO ~0.9 mM, NO 1 mM).

Molecules are shown by their SMILES. pKd: −log10 of the molar value. Values joined by “and” are separate entries in the source; they are usually repeats but may differ in a detail not shown here. Identical values can stand only once. “Also recorded” adds a separate entry of the source. Like-named read-outs stand apart in the source and are kept apart here. Where only a bound is given, the exact number is not on record here.

T1 sequence (P37002 whole entry): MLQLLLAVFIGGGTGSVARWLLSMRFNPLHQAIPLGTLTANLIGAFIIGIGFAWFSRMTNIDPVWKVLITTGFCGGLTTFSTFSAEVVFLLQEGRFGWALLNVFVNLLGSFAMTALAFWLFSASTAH

`[Ca+2].[Cl-].[Cl-]` [Ca^2+, calcium chloride]: the “effect on fluoride-dependent RNA structural modulation” value in experiment [1] is recorded as “diminishes RNA structural modulation; also recorded: complete loss of modulation”.
`[F-].[Na+]` [NaF, sodium fluoride]: the “concentration at which growth becomes noticeably reduced” value in [2] (liquid media) is listed as 30 mM. For the same compound, the “minimum inhibitory concentration (MIC)” value in [2] (liquid media, 16 hr growth curves) is about 200 mM. Also, the “conformational changes of 78 Psy crcB motif RNA” value in [1] is “trigger identical conformational changes”.
For `CCCC[N+](CCCC)(CCCC)CCCC.[F-]` [TBAF, Tetra-n-butylammonium fluoride], in [1], the “conformational changes of 78 Psy crcB motif RNA” value is “trigger identical conformational changes”.
For the compound `Br` [bromide], the “binding / structure modulation by other ligands” value (from here on “binding / structure modulation”) in [1] was “rejects”.
For the compound `[C-]#[O+]` [carbon monoxide], the “binding / structure modulation” value in [1] (setting [11]) was “rejected”.
For `Cl` [chloride], in experiment [1], the “78 Psy aptamer structure on exposure to chloride” value is “remains unchanged” and the “binding / structure modulation” value was “rejects”.
In general, pKd refers to −log10 of the Kd, conventionally taken in molar units. With `F` [fluoride], the growth result is on record as “robust growth” in experiment [2] (50 mM fluoride) and “fails to grow” in [4] (50 mM fluoride). In addition, in [1], the “selectivity of aptamer binding, fluoride versus chloride” value was “at least 40,000 fold”. Moreover, the pKd in [1] (read-out: apparent dissociation constant (KD)) is ~4.22 and 4.22; in experiment [3], about 4.30; in experiment [6], about 4.30. For the same compound, the MIC in experiment [4] (Escherichia coli, 16 h, read-out: minimum inhibitory concentration (MIC)) is over 1000 µM. Further, the growth inhibition result in experiment [5] (1 mM fluoride) is given as “almost no growth inhibition”. In experiment [5] (eriC^F-rescued cells), the “fluoride concentration in culture medium required to cause growth inhibition and reporter expression” value is listed as about 10 mM. For the same compound, the “fluoride concentration in growth medium yielding maximal reporter gene signal” value in experiment [7] (crcB K.O. strain) is given as 1 mM. In addition, in experiment [7] (solid medium supplemented with 50 mM fluoride), the β-galactosidase expression entry was “readily apparent”. The β-galactosidase reporter activity result in experiment [8] is “induced high levels of expression”.
Turning to `O` [hydroxide ions, hydroxide], the “RNA conformational changes with hydroxide” value in [1] (pH 9.7) was “do not trigger RNA conformational changes”.
Consider `CN(C)CCCN1c2ccccc2CCc2ccccc21` [imipramine, 3-(10,11-dihydro-5H-dibenzo[b,f]azepin-5-yl)-N,N-dimethylpropan-1-amine], for which the “level of reporter gene expression with imipramine” value in [9] is given as “substantially reduced”. Besides, the “reporter gene expression (fluorescence, 4-MUG)” value in [10] (330 μM imipramine, with sodium fluoride) is recorded as “increased expression of the reporter gene”. Moreover, the “action on fluoride transporter CrcB” value in [10] (concluded from reporter results with and without CrcB) is reported as “blocks this fluoride transporter”.
As to `I` [iodide], in experiment [1] (setting [11]), the “binding / structure modulation” value is “rejects”.
For `[N]=O` [nitric oxide], the “binding / structure modulation” value in experiment [1] (setting [11]) is “rejected”.
On to `F.[F-].[K+]` [potassium bifluoride], for which the “conformational changes of 78 Psy crcB motif RNA” value in experiment [1] is reported as “trigger identical conformational changes”.

The values are drawn from patent publication US9580713B2 (priority 2011, dated 2017).
